Data as given in patent US4520024A, “Method of selectively blocking peripheral vascular serotonergic receptors” (Eli Lilly and Company, priority 1983, dated 1985).

Experiments:
[1] = tested on: alpha-adrenergic receptors; assay: Apparent dissociation constant, antagonism of norepinephrine-induced contraction in rat aorta; type: cell-based
From the text: (§1) Male Wistar rats (150-300 gram weight) were killed and their external jugular veins and thoracic aortas dissected free of connective tissue, cannulated in situ and placed in a modified Krebs' bicarbonate buffer in a suitable tissue bath. Two L-shaped 30-gauge stainless-steel hypodermic needles were inserted in each cannula and the dissected vessels gently pushed onto the needles. One needle was attached with thread to a stationary glass rod and the other to the transducer. [The procedure employed was that described by Hooker, Calkins and Fleisch, Blood Vessels, 14, 1, (1977) for use with circular smooth muscle preparations.]
(§2) The modified Krebs' bicarbonate buffer had the following makeup: (concentrations in millimoles): sodium chloride, 118.2; potassium chloride, 4.6; calcium chloride dihydrate, 1.6; potassium dihydrogenphosphate, 1.2; magnesium sulfate, 1.2; dextrose, 10.0; sodium bicarbonate, 24.8; and water q.s. to 1000 g. […] Isometric contractions were recorded as changes in grams of force on a Beckman Dynograph with Statham UC-3 transducers and microscale accessory attachment. […] Contraction to serotonin was evaluated in the jugular vein since this tissue produces marked responses to serotonin in the absence of alpha receptors--see Cohen and Wiley, J. Pharm. […] Alpha receptor antagonist activity was evaluated in the aorta. […]

[2] = tested on: conscious spontaneously hypertensive rats (SHR); assay: In vivo studies, conscious SHR, mean arterial blood pressure; parameters: species or system rat; conditions: intraperitoneal, 10 mg./kg. dose level
From the text: Twenty-four week old SHR (325-425 g.) rats were anesthetized with halothane. They were then implanted with femoral arterial and venous catheters. The tips of the arterial and venous catheters were positioned in the abdominal aorta below the renal arteries and lower abdominal vena cava, respectively. The catheters were routed subcutaneously to an exit point at the base of the skull and then through a small leather harness fastened around the forequarters of each animal. The animals were allowed a 3-4 day recovery period after surgery. On the day before a given experiment, the rats to be used in that experiment were conditioned to the experimental surroundings for about 6 hours. In carrying out the determination, the harness on the back of each animal was connected to a spring-tether through which arterial and venous extension tubing were routed. The opposite end of the tubing was connected to a water tight swivel. This system permitted direct recording of blood pressure in conscious, free-moving animals. Mean arterial blood pressure was measured via a Statham strain gauge transducer and recorded on a multichannel oscillograph. The rats were equilibrated for at least 30 minutes prior to the initiation of the experimental protocol. During this equilibration period, the animals preened themselves and the blood pressure was quite labile. After this period, the animals appeared to sleep and pressure was stable. Following a control blood pressure measurement, the rats were dosed with ketanserin, benzoctamine, 1-(1-naphthyl)piperazine or the experimental vehicle via the intraperitoneal route. Blood pressure was monitored at various time intervals after dosing.

alpha1 receptor = assay: In vivo studies, pithed SHR, pressor response to methoxamine; parameters: species or system rat; conditions: i.p., rank order among three drugs
Experimental: SHR were anesthesized with halothane, femoral arterial and venous catheters implanted as before and the trachea cannulated. Each rat was pithed by passing a steel rod through the right orbit and down the entire length of the spinal column. The steel rod remained in place for the duration of the experiment. Immediately after pithing, the rats were ventilated with room air via a rodent respirator which eliminated any anesthetic effects. […] The response was recorded and the blood pressure allowed to recover to control levels. […] The test drugs were prepared fresh daily and administered by the intraperitoneal route. Benzoctamine and 1-(1-naphthyl)piperazine were administered at a 10 mg./kg. dosage and ketanserin at a 1 mg./kg. dosage.

5HT2 receptors [3] = target: T1, 5HT2 receptors (Rattus norvegicus, UniProt P14842); assay: Apparent dissociation constant, antagonism of serotonin-induced contraction in rat jugular vein; type: cell-based; parameters: from tissue; host or cells: whole animal: pithed SHR, vascular tissue in vivo; conditions: serotonin as agonist, antagonist incubated one hour, read-out: -log KB for 5HT2 receptors (converted)
T1 sequence (P14842 whole entry): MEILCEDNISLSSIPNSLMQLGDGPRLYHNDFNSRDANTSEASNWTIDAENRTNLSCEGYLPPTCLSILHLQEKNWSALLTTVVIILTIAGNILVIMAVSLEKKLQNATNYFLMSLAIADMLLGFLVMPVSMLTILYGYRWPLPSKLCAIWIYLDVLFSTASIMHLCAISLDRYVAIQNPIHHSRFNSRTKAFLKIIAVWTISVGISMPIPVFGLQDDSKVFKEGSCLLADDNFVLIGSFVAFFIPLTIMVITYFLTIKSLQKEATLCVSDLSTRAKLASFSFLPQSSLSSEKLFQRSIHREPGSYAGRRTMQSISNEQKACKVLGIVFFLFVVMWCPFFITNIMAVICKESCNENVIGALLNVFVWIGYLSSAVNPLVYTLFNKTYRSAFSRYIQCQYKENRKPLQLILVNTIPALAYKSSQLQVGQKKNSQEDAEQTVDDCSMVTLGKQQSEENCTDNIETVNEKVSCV
From the text: as §1, §2

5HT2 receptors [4] = target: T1, 5HT2 receptors; assay: In vivo studies, pithed SHR, pressor response to serotonin; parameters: from tissue; host or cells: whole animal: pithed SHR, vascular tissue in vivo; conditions: i.p., rank order among three drugs
Experimental: SHR were anesthesized with halothane, femoral arterial and venous catheters implanted as before and the trachea cannulated. Each rat was pithed by passing a steel rod through the right orbit and down the entire length of the spinal column. The steel rod remained in place for the duration of the experiment. Immediately after pithing, the rats were ventilated with room air via a rodent respirator which eliminated any anesthetic effects. An equilibration period of 15 minutes was observed prior to control measurements and administration of drugs or vehicle i.p. Increasing doses of serotonin or methoxamine were injected i.v. 15 minutes after the equilibration period. The response was recorded and the blood pressure allowed to recover to control levels. […] The test drugs were prepared fresh daily and administered by the intraperitoneal route. Benzoctamine and 1-(1-naphthyl)piperazine were administered at a 10 mg./kg. dosage and ketanserin at a 1 mg./kg. dosage.

SMILES	-log KB for alpha-adrenergic receptors ([1]; rat thoracic aorta, norepinephrine as agonist, antagonist incubated one hour, 60 min)	lower affinity for alpha-adrenergic receptors than for 5HT2 receptors ([1]; ratio of affinities, 5HT2 versus alpha-adrenergic)	blood pressure lowering [2]	inhibition in the pressor response to methoxamine (alpha1 receptor; 10 mg./kg.)	Kb (5HT2 receptors [3]) [nM]	inhibition of the pressor response to serotonin (5HT2 receptors [4]; 10 mg./kg.)	inhibition in the pressor response to methoxamine (alpha1 receptor; 1 mg./kg.)	inhibition of the pressor response to serotonin (5HT2 receptors [4]; 1 mg./kg.)
c1ccc2c(N3CCNCC3)cccc2c1 [1-(1-naphthyl)piperazine]	5.38	approximately 2000 fold	ineffective as a blood pressure lowering agent	the least	1.78	–	–	–
CNCC12CCC(c3ccccc31)c1ccccc12 [benzoctamine]	–	–	lowered blood pressure as did ketanserin but to a lesser degree	second	–	then benzoctamine	–	–
O=C(c1ccc(F)cc1)C1CCN(CCn2c(=O)[nH]c3ccccc3c2=O)CC1 [ketanserin]	–	–	produced the greatest fall in blood pressure	–	–	–	greatest effect	greatest
